Reference: patent US20230235374A1, “High Throughput Assays for Detecting Translation Readthrough Inducers” (The Trustees of the University of Pennsylvania, priority 2021, published 2023)

How the values were obtained:
[1] = target: T1, near-cognate aa-tRNA.eEF1A.GTP complex (TC) binding at a stop codon (Saccharomyces cerevisiae, UniProt P02994); conditions: Ng et al., 2021; cited from earlier work
T1 sequence (P02994 2-458 limits assumed): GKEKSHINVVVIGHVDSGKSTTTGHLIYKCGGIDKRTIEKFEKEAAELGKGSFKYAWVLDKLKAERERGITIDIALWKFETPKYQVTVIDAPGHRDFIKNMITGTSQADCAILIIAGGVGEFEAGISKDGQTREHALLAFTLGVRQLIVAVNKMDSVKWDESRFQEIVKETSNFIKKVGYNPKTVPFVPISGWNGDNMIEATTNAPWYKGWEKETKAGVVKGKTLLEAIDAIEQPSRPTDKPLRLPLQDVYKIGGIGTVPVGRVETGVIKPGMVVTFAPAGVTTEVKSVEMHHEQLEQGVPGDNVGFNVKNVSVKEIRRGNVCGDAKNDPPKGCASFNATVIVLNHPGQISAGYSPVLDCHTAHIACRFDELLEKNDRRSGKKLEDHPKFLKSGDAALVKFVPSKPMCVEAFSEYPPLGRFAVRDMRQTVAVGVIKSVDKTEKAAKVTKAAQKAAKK

[2] = test system: Cy5-hRF1.hRF3.GTP binding to Stop-POST5; test: smFRET Cy5-hRF1.hRF3.GTP binding to Stop-POST5; design: species or system human; conditions: ataluren 1 mM, FIG. 15C
Source text: Several important results have been obtained with Cy5-heRF1 which further elucidate the mechanism of termination shown in FIGS. 14A and 14B. Cy5-heRF1 forms a catalytically active RFC with unlabeled heRF3, which, when added to the Stop-POST5 complex, generated a transient FRET signal with FKVRQ-tRNA^Gln(Cy3) bound in the P-site (FIGS. 15A and 15B).

[3] = test system: premature stop codon in Stop-POST5 complex; test: PURE-LITE readthrough assay; format: biochemical, shrimp (Artemia salina); conditions: FIG. 2A, read-out: apparent EC50, readthrough efficacy
Experimental: FIG. 2A, FIG. 2B, FIG. 2C, FIG. 2D, FIG. 2E, and FIG. 2F are graphs showing AzAt Photoaffinity Labeling and binding. FIG. 2A is a graph showing the readthrough efficacy of AzAt measured by PURE-Lite readthrough assay. AzAt is shown to display similar sigmoidal response as ataluren and ataluren-like compounds (Ng et al., 2018), with the apparent EC50 of 50±10 μM. FIG. 2B illustrates AzAt photoincorporation into Stop-POST5 and the RNA fraction of Stop-POST5. FIG. 2C illustrates AzAt photoincorporation into 80S-IRES and the total RNA isolated from 80S.IRES. All of the labeling stoichiometries in FIG. […] are normalized to the saturation labeling of Stop-POST5, which was equal to 1.2/Stop-POST5. FIG. 2D illustrates AzAt photoincorporation into eRF1 both alone and complexed with eRF3.GDPNP. The values are normalized to the saturation labeling of isolated eRF1. FIG. 2E illustrates inhibition of AzAt photoincorporation by the addition of either ataluren or GJ072. FIG. 2F is a graph showing Photoaffinity labeling of eRF3 alone or within release factor ternary complex. […] FIG. 2G and FIG. 2H are graphs showing the RNA-seq reads coverage as the effective reads per nucleotide. PRE: treated with 300 μM prephotolysed AzAt; PAL: treated with 300 μM AzAt. 26S-rRNA nucleotides 1-45 were unable to be mapped due to the lack of sequence information. […]

[4] = test system: 80S.IRES complex; test: [3H]-AzAt photoaffinity labeling of 80S.IRES complex; format: binding, shrimp (Artemia salina); conditions: FIG. 2C
Experimental: Photoaffinity labeling with [^3H]-AzAt. Samples in Buffer 4, typically 20 μL, were incubated in the dark (20 min for Stop-POST5 and 80S-IRES complexes, 2 min for release factors) with various concentrations of [^3H]-AzAt at 37° C., transferred to a UV-transparent cuvette which was covered with parafilm to prevent evaporation, and irradiated in a Rayonet photochemical reactor equipped with 300 nm UV lamps for 5 min at room temperature. This was followed by quenching with 2 mM DTT at 37° C. for 5 min under ambient light. The irradiation time gave complete photolysis of the phenyl azide moiety in AzAt. Photolysis was also complete at 5 min in the presence of 1 mM ataluren, ruling out internal filtering effects.
Stop-POST5 and 80S-IRES complexes. 1 μM solutions of either Stop-POST5 or 80S-S.IRES, determined by A260, were photolabeled by [^3H]-AzAt. The sample was then either directly purified by ultracentrifugation through a sucrose cushion to determine the photoincorporation stoichiometry in the complex, or subjected to phenol/chloroform extraction to determine the photoincorporation stoichiometry in the total RNA. […]

Row | Structure (SMILES) | effect on productive binding of near-cognate TC at a stop codon [1] | effect on rate of Cy5-hRF1.hRF3.GTP binding to Stop-POST5 [2] | EC50 [3] | photoincorporation stoichiometry into 80S.IRES, lower vs. Stop-POST5 [4]
1 | O=C(O)c1cccc(-c2noc(-c3ccccc3F)n2)c1 [Ataluren] | no effect | strongly inhibited |  | 
2 | [N-]=[N+]=Nc1ccc(-c2nc(-c3cccc(C(=O)O)c3)no2)cc1 [AzAt] |  |  | 50 ± 10 µM | 25%
